# Results published in US8415342B2, “Besifloxacin ophthalmic composition for the treatment or control of infection” (Bausch & Lomb Incorporated, priority 2008, dated 2013).
# Where two headings read alike, the source gives them in different places.
# Experiments:
# Assay type in all cases: cell-based
# Citrobacter koseri = experiment: MIC, CLSI broth microdilution, clinical isolates; conditions: Citrobacter koseri (N = 100)
# Klebsiella oxytoca = experiment: MIC, CLSI broth microdilution, clinical isolates; conditions: Klebsiella oxytoca (N = 50)
# Morganella morganii = experiment: MIC, CLSI broth microdilution, clinical isolates; conditions: Morganella morganii (N = 51)
# Anaerobic Bacteria = experiment: MIC against anaerobic bacteria (Table 7); conditions: for % S (percent of susceptible isolates): CLSI breakpoints
# Staphylococcus aureus = experiment: MIC, CLSI broth microdilution, clinical isolates; conditions: for MIC50 / MIC90: Staphylococcus aureus
# [1] = test system: Staphylococcus epidermidis; experiment: MIC, CLSI broth microdilution, clinical isolates; conditions: for MIC50: Staphylococcus epidermidis
# [2] = test system: Staphylococcus lugdunensis; experiment: MIC, CLSI broth microdilution, clinical isolates; conditions: Staphylococcus lugdunensis (N = 15)
# [3] = test system: Staphylococcus saprophyticus; experiment: MIC, CLSI broth microdilution, clinical isolates; conditions: Staphylococcus saprophyticus (N = 101)
# [4] = test system: Staphylococcus haemolyticus; experiment: MIC, CLSI broth microdilution, clinical isolates; conditions: Staphylococcus haemolyticus (N = 101)
# Staphylococcus warneri = experiment: MIC, CLSI broth microdilution, clinical isolates; conditions: Staphylococcus warneri (N = 50)
# Staphylococcus hominis = experiment: MIC, CLSI broth microdilution, clinical isolates; conditions: Staphylococcus hominis (N = 50)
# Moraxella catarrhalis = experiment: MIC, CLSI broth microdilution, clinical isolates; conditions: Moraxella catarrhalis (N = 101)
# Streptococcus agalactiae = experiment: MIC, CLSI broth microdilution, clinical isolates; conditions: Streptococcus agalactiae (N = 100)
# Streptococcus pneumoniae = experiment: MIC, CLSI broth microdilution, clinical isolates
# Streptococcus pyogenes = experiment: MIC, CLSI broth microdilution, clinical isolates; conditions: Streptococcus pyogenes (N = 101)
# [5] = test system: Lancefield group C, F, G streptococci; experiment: MIC, CLSI broth microdilution, clinical isolates; conditions: G streptococci (N = 50)
# Viridans streptococci = experiment: MIC, CLSI broth microdilution, clinical isolates; conditions: Viridans streptococci (N = 156)
# [6] = Bacteroides fragilis, Bacteroides fragilis (N = 20), read-out: MIC50
# [7] = Bacteroides fragilis, Bacteroides fragilis (N = 20), read-out: MIC90
# [8] = Clostridium perfringens (N = 21)
# [9] = Clostridium perfringens, Clostridium perfringens (N = 21)
# [10] = Fusobacterium spp. (N = 21), read-out: MIC50
# [11] = Fusobacterium spp. (N = 21), read-out: MIC90
# [12] = Propionibacterium acnes (N = 21)
# [13] = Staphylococcus aureus (CNS, N = 16)
# [14] = Staphylococcus aureus (CS, N = 14)
# [15] = Staphylococcus aureus (MSSA, N = 19)
# [16] = Staphylococcus aureus (all phenotypes, N = 30)
# [17] = MRSA, Staphylococcus aureus (MRSA, N = 11)
# [18] = MSSA, Staphylococcus aureus (MSSA, N = 19)
# [19] = Staphylococcus epidermidis (CNS, N = 6)
# [20] = Staphylococcus epidermidis (CS, N = 9)
# [21] = Staphylococcus epidermidis (MRSE, N = 9)
# [22] = Staphylococcus epidermidis (MSSE, N = 6)
# [23] = Staphylococcus epidermidis (all phenotypes, N = 15)
# [24] = Streptococcus pneumoniae (PISP, N = 2)
# [25] = Streptococcus pneumoniae (PSSP, N = 31)
# [26] = Streptococcus pneumoniae (all phenotypes, N = 35)
compound,measurement,setting,value
CC(C)(O/N=C(\C(=O)N[C@@H]1C(=O)N2C(C(=O)[O-])=C(C[n+]3ccccc3)CS[C@H]12)c1csc(N)n1)C(=O)O [Ceftazidime],% S,Citrobacter koseri,100.0%
same,MIC50,Citrobacter koseri,0.12 µg/mL
same,MIC90,Citrobacter koseri,0.5 µg/mL
same,MIC Range,Citrobacter koseri,0.06 to 4 µg/mL
same,% S,Klebsiella oxytoca,100.0%
same,MIC50,Klebsiella oxytoca,0.12 µg/mL
same,MIC90,Klebsiella oxytoca,0.5 µg/mL
same,MIC Range,Klebsiella oxytoca,0.03 to 1 µg/mL
same,% S,Morganella morganii,82.4%
same,MIC50,Morganella morganii,0.12 µg/mL
same,MIC90,Morganella morganii,16 µg/mL
CCC[C@@H]1C[C@@H](C(=O)N[C@@H]([C@H]2O[C@H](SC)[C@H](O)[C@@H](O)[C@H]2O)[C@H](C)Cl)N(C)C1 [Clindamycin],MIC50,Anaerobic Bacteria,≤ 0.03 µg/mL
same,MIC90,Anaerobic Bacteria,> 8 µg/mL
same,% S (percent of susceptible isolates),Anaerobic Bacteria; Bacteroides fragilis (N = 20),65.0%
same,MIC50,Anaerobic Bacteria; [6],2 µg/mL
same,MIC90,Anaerobic Bacteria; [7],> 8 µg/mL
same,MIC Range,Anaerobic Bacteria; [8],0.06 to 4 µg/mL
same,% S (percent of susceptible isolates),Anaerobic Bacteria; [8],85.7%
same,MIC50,Anaerobic Bacteria; [9],2 µg/mL
same,MIC90,Anaerobic Bacteria; [9],4 µg/mL
same,MIC50,Anaerobic Bacteria; Cutibacterium acnes,0.06 µg/mL
same,MIC90,Anaerobic Bacteria; Cutibacterium acnes,0.12 µg/mL
same,MIC Range,Anaerobic Bacteria; Fusobacterium spp. (N = 21),0.06 to 8 µg/mL
same,% S (percent of susceptible isolates),Anaerobic Bacteria; Fusobacterium spp. (N = 21),95.2%
same,MIC50,Anaerobic Bacteria; [10],0.06 µg/mL
same,MIC90,Anaerobic Bacteria; [11],2 µg/mL
same,% S (percent of susceptible isolates),Anaerobic Bacteria; Prevotella spp. (N = 20),85.0%
same,MIC Range,Anaerobic Bacteria; [12],≦0.03-2 μg/mL
same,% S (percent of susceptible isolates),Anaerobic Bacteria; [12],100.0%
Cc1ncc([N+](=O)[O-])n1CCO [Metronidazole],MIC50,Anaerobic Bacteria,4 µg/mL
same,MIC90,Anaerobic Bacteria,4 µg/mL
same,MIC Range,Anaerobic Bacteria; Bacteroides fragilis (N = 20),2-2 μg/mL
same,% S (percent of susceptible isolates),Anaerobic Bacteria; Bacteroides fragilis (N = 20),100.0%
same,MIC50,Anaerobic Bacteria; [6],2 µg/mL
same,MIC90,Anaerobic Bacteria; [7],2 µg/mL
same,MIC Range,Anaerobic Bacteria; [8],1 to 4 µg/mL
same,% S (percent of susceptible isolates),Anaerobic Bacteria; [8],100.0%
same,MIC50,Anaerobic Bacteria; [9],2 µg/mL
same,MIC90,Anaerobic Bacteria; [9],4 µg/mL
same,MIC50,Anaerobic Bacteria; Cutibacterium acnes,> 16 µg/mL
same,MIC90,Anaerobic Bacteria; Cutibacterium acnes,> 16 µg/mL
same,MIC Range,Anaerobic Bacteria; Fusobacterium spp. (N = 21),≦0.12-2 μg/mL
same,% S (percent of susceptible isolates),Anaerobic Bacteria; Fusobacterium spp. (N = 21),100.0%
same,MIC50,Anaerobic Bacteria; [10],0.25 µg/mL
same,MIC90,Anaerobic Bacteria; [11],1 µg/mL
same,MIC Range,Anaerobic Bacteria; Prevotella spp. (N = 20),0.25 to 8 µg/mL
same,% S (percent of susceptible isolates),Anaerobic Bacteria; Prevotella spp. (N = 20),100.0%
same,% S (percent of susceptible isolates),Anaerobic Bacteria; [12],0.0%
Cc1onc(-c2ccccc2)c1C(=O)N[C@@H]1C(=O)N2[C@@H]1SC(C)(C)[C@@H]2C(=O)O [Oxacillin],% S,Staphylococcus aureus; [13],50.0%
same,% S,Staphylococcus aureus; [14],78.6%
same,% S,"Staphylococcus aureus; Staphylococcus aureus (MRSA, N = 11)",0.0%
same,% S,Staphylococcus aureus; [15],100.0%
same,MIC Range,Staphylococcus aureus; [15],0.12 to 0.5 µg/mL
same,% S,Staphylococcus aureus; [16],63.3%
same,MIC50,Staphylococcus aureus; [17],> 8 µg/mL
same,MIC90,Staphylococcus aureus; [17],> 8 µg/mL
same,MIC50,Staphylococcus aureus; [18],0.25 µg/mL
same,MIC90,Staphylococcus aureus; [18],0.5 µg/mL
same,MIC50,Staphylococcus aureus; [13],0.5 µg/mL
same,MIC90,Staphylococcus aureus; [13],> 8 µg/mL
same,MIC50,Staphylococcus aureus; [14],0.25 µg/mL
same,MIC90,Staphylococcus aureus; [14],> 8 µg/mL
same,MIC50,Staphylococcus aureus; [16],0.25 µg/mL
same,MIC90,Staphylococcus aureus; [16],> 8 µg/mL
same,% S,[1]; [19],50.0%
same,MIC Range,[1]; [19],0.12 to 4 µg/mL
same,% S,[1]; [20],55.6%
same,MIC Range,[1]; [20],≦0.06-2 μg/mL
same,% S,[1]; [21],0.0%
same,MIC Range,[1]; [21],1 to 4 µg/mL
same,% S,[1]; [22],100.0%
same,MIC Range,[1]; [22],≦0.06-0.12 μg/mL
same,% S,[1]; [23],40.0%
same,MIC90,[1]; [23],2 µg/mL
same,MIC Range,[1]; [23],≦0.06-4 μg/mL
same,MIC50,"[1]; MRSE, Staphylococcus epidermidis (MRSE, N = 9)",1 µg/mL
same,MIC50,[1]; [19],1 µg/mL
same,MIC50,[1]; [20],0.12 µg/mL
same,MIC50,[1]; [22],≤ 0.06 µg/mL
same,MIC50,[1]; [23],1 µg/mL
same,% S,[2],60.0%
same,MIC50,[2],0.5 µg/mL
same,MIC90,[2],> 8 µg/mL
same,% S,[3],9.9%
same,MIC50,[3],0.5 µg/mL
same,MIC90,[3],1 µg/mL
same,% S,[4],31.7%
same,MIC50,[4],> 8 µg/mL
same,MIC90,[4],> 8 µg/mL
same,% S,Staphylococcus warneri,46.0%
same,MIC50,Staphylococcus warneri,0.5 µg/mL
same,MIC90,Staphylococcus warneri,> 8 µg/mL
same,% S,Staphylococcus hominis,16.0%
same,MIC50,Staphylococcus hominis,> 8 µg/mL
same,MIC90,Staphylococcus hominis,> 8 µg/mL
same,MIC50,Moraxella catarrhalis,4 µg/mL
same,MIC90,Moraxella catarrhalis,8 µg/mL
Penicillin,% S,Streptococcus agalactiae,100.0%
same,MIC50,Streptococcus agalactiae,0.03 µg/mL
same,MIC90,Streptococcus agalactiae,0.06 µg/mL
same,MIC Range,Streptococcus agalactiae,≦0.015-0.06 μg/mL
same,% S,Streptococcus pneumoniae; [24],0.0%
same,MIC Range,Streptococcus pneumoniae; [24],4-4 μg/mL
same,% S,"Streptococcus pneumoniae; Streptococcus pneumoniae (PRSP, N = 2)",0.0%
same,% S,Streptococcus pneumoniae; [25],100.0%
same,MIC50,Streptococcus pneumoniae; [25],≦0.015 μg/mL
same,MIC90,Streptococcus pneumoniae; [25],0.25 µg/mL
same,MIC Range,Streptococcus pneumoniae; [25],≦0.015-0.5 μg/mL
same,% S,Streptococcus pneumoniae; [26],88.6%
same,MIC50,Streptococcus pneumoniae; [26],≦0.015 μg/mL
same,MIC90,Streptococcus pneumoniae; [26],4 µg/mL
same,% S,Streptococcus pyogenes,100.0%
same,MIC50,Streptococcus pyogenes,≦0.015 μg/mL
same,MIC90,Streptococcus pyogenes,≦0.015 μg/mL
same,MIC Range,Streptococcus pyogenes,≦0.015-0.06 μg/mL
same,% S,[5],100.0%
same,MIC50,[5],≦0.015 μg/mL
same,MIC90,[5],0.06 µg/mL
same,MIC Range,[5],≦0.015-0.06 μg/mL
same,% S,Viridans streptococci,76.3%
same,MIC50,Viridans streptococci,0.06 µg/mL
same,MIC90,Viridans streptococci,1 µg/mL
